Laboratory results taken from US20040224972A1, “Medicinal compositions for concomitant use as anticancer agent” (priority 2000, published 2004).
Where a name gives a salt, the structure may show the parent alone. Read-outs that look alike come from different tables or passages of the source.

Key:
[1] = system: Human colon cancer strain Colo320D. M. xenograft; experiment: Combined use of E7070 and 5-FU in human colon cancer Colo320D. M. xenograft model; assay type: in vivo; details: for Toxicity Dead/Treated: E7070 30 mg/kg/day QDx5, 5-FU 60 mg/kg/day Q4Dx3
Text: Human colon cancer strain Colo320D.

[2] = system: Human colon cancer strain HCT15 xenograft; details: E7070 30 mg/kg/day QDx5, CPT-11 75 mg/kg/day Q4Dx3; for Toxicity mRBW mean (minimum relative body weight): day of minimum in parentheses
Protocol: Human colon cancer strain HCT15 (purchased from ATCC) was cultured in RPMI1640 (containing 10%FBS) in a 5%CO2gas incubator until it attained about 80% confluence, and the cells were harvested with trypsin-EDTA and suspended in Hanks balanced solution to prepare a suspension of 5×10^7 cells/ml. 0.1 ml of the cell suspension was implanted subcutaneously in each nude mouse. When the average tumor volume reached 182 mm3 after the implantation, E7070 in a dose of 30 mg/kg/day and/or CPT-11 in a dose of 75 mg/kg/day were administered either alone or in combination. E7070was intravenously administered once per day for 5 days (first to fifth days), while CPT-11 was intravenously administered 3 times (once every 4 days, that is, on the first, fifth and ninth days). After the administration was initiated, the longer and shorter diameters of the tumor were measured at the frequency of 2 times/week with digital calipers (Mitsutoyo), and the tumor volume was calculated according to the following equation.
(§1) Tumor volume=longer diameter of tumor (mm)×shorter diameter of tumor (mm)^2/2
(§2) The items for determination of antitumor effect were the following 2 items:
Tx4: The time in days for tumor size to attain 4 folds of initial size.
(§3) Minimum relative tumor volume (mRTV): Minimum value of relative tumor volume (RTV*)
(§4) *: Tumor volume on n days after first treatment/tumor volume at the start of treatment.

[3] = system: Human colon cancer strain SW620 xenograft; experiment: Combined use of E7070 and CPT-11 in human colon cancer SW620 xenograft model; details: E7070 25 mg/kg/day QDx5, CPT-11 62.5 mg/kg/day Q4Dx3
Protocol: Human colon cancer strain SW620 (purchased from ATCC) was cultured in RPMI1640 (containing 10% FBS) in a 5% Co2gas incubator until it attained about 80% confluence, and the cells were harvested with trypsin-EDTA and suspended in Hanks balanced solution to prepare a suspension of 5×10^7 cells/ml. 0.1 ml of the cell suspension was implanted subcutaneously in each nude mouse. When the average tumor volume reached 226 mm^3 after the implantation, E7070 in a dose of 25 mg/kg/day and/or CPT-11 in a dose of 62.5 mg/kg/day were administered either alone or in combination. E7070 alone was intravenously administered once per day for 5 days (first to fifth days), while CPT-11 alone was intravenously administered 3 times (once every 4 days, that is, on the first, fifth and ninth days). Administration in combination was performed in 3 schedules, that is, simultaneous administration (E7070 on the first to fifth days; CPT-11 on the first, fifth and ninth days), previous administration of E7070 (E7070 on the first to fifth days; CPT-11 on the sixth, tenth and fourteenth days) and previous administration of CPT-11 (E7070 on the tenth to fourteenth days; CPT-11 on the first, fifth and ninth days). After the administration was initiated, the longer and shorter diameters of the tumor were measured at the frequency of 2 times/week with digital calipers (Mitsutoyo), and the tumor volume was calculated according to the following equation.
as §1, §2, §3, §4

[4] = system: Human colon cancer strain HCT15 xenograft; experiment: Combined use of E7070 and MMC in human colon cancer HCT15 xenograft model; assay type: in vivo; details: E7070 QDx5, MMC 4.19 mg/kg/day QDx1; for Toxicity mRBW mean (minimum relative body weight): day of minimum in parentheses
Protocol: Human colon cancer strain HCT15 (purchased from ATCC) was cultured in RPMI1640 (containing 10% FBS) in a 5% CO2gas incubator until it attained about 80% confluence, and the cells were harvested with trypsin-EDTA and suspended in Hanks balanced solution to prepare a suspension of 5×10^7 cells/ml. 0.1 ml of the cell suspension was implanted subcutaneously in each nude mouse. When the average tumor volume reached 156 mm3 after the implantation, E7070 in a dose of 25 mg/kg/day and/or MMC in a dose of 4.19 mg/kg/day were administered either alone or in combination. E7070was intravenously administered once per day for 5 days (first to fifth days), while MMC was intravenously administered once (first day). After the administration was initiated, the longer and shorter diameters of the tumor were measured at the frequency of 2 times/week with digital calipers (Mitsutoyo), and the tumor volume was calculated according to the following equation.
as §1, §2

[5] = system: Human breast cancer HBC4 xenograft; experiment: Combined use of E7070 and capecitabine in human breast cancer HBC4 xenograft model; assay type: in vivo, human cells in nude mouse; details: nude mice, s.c. HBC4; E7070 30.625 mg/kg/day (87.5% MTD) day 1-5; capecitabine 1.3125 mmol/kg/day (87.5% MTD) 14 days; combination: E7070 day 1-5, capecitabine day 6-19
Protocol: When the average tumor volume reached 114 mm3 after the implantation, E7070 in a dose of 30.625 mg/kg/day and/or capecitabine in a dose of 1.3125 mmol/kg/day were administered either alone or in combination.

[6] = Examination of gemcitabine hydrochloride, doxorubicin and taxol for synergistic effect (combined with E7070); details: used in the composition with E7070; no data given

Row | SMILES | Toxicity Dead/Treated [1] | Toxicity Dead/Treated [2] | Toxicity mRBW mean (minimum relative body weight) [2] | Toxicity Dead/Treated [3] | Toxicity mRBW mean (minimum relative body weight) ([3]; day of minimum in parentheses) | Toxicity Dead/Treated [4] | Toxicity mRBW mean (minimum relative body weight) [4] | antitumor activity when examined for synergistic effect [6] | other results
1 | O=c1[nH]cc(F)c(=O)[nH]1 [5-FU, 5-fluoro-2,4-(1H,3H)-pyrimidinedione] | 0/6 |  |  |  |  |  |  |  | Tx4 (days) mean ± S.D.: time in days for tumor size to attain 4 folds of initial tumor size ([1]; nude mice, s.c. Colo320D. M., E7070 30 mg/kg/day i.v. QDx5, 5-FU 60 mg/kg/day i.v. Q4Dx3, + simultaneous, → sequential): 10.0 ± 0.7 days
2 | CCc1c2c(nc3ccc(OC(=O)N4CCC(N5CCCCC5)CC4)cc13)-c1cc3c(c(=O)n1C2)COC(=O)[C@]3(O)CC [CPT-11, [1,4′-Bipiperidine]-1′-carboxylicacid (S)-4,11-diethyl-3,4,12,14-tetrahydro-4-hydroxy-3,14-dioxo-1H-pyrano-[3′,4′:6,7]-indolizino[1,2-b]quinolin-9-yl ester Hydrochloride trihydrate] |  | 0/6 | 0.94 (7, 10) | 0/6 | 0.99 (8) |  |  |  | 
3 | NS(=O)(=O)c1ccc(S(=O)(=O)Nc2cccc3c(Cl)c[nH]c23)cc1 [E7070, N-(3-chloro-1H-indol-7-yl)-4-sulfamoylbenzenesulfonamide] | 0/6 | 0/6 | 0.92 (7) | 0/6 | 0.98 (8) | 0/6 | 0.93 (11) |  | Tx4 [5]: 50.0 ± 8.1 days; mRTV mean ± S.D. (minimum relative tumor volume) ([3]; day of minimum in parentheses): 0.76 ± 0.42 (12)
4 | CO[C@@]12[C@H](COC(N)=O)C3=C(C(=O)C(C)=C(N)C3=O)N1C[C@@H]1N[C@@H]12 [MMC, [1aS-(1aα,8β,8aα,8bα)]-6-amino-8-[[(aminocarbonyl)oxy]methyl]1,1a,2,8,8a,8b-hexahydro-8a-methoxy-5-methylazirino[2′,3′: 3,4]pyrrolo[1,2-a]indole-4,7-dione] |  |  |  |  |  | 0/6 | 0.99 (11) |  | 
5 | COc1cccc2c1C(=O)c1c(O)c3c(c(O)c1C2=O)C[C@@](O)(C(=O)CO)C[C@@H]3O[C@H]1C[C@H](N)[C@H](O)[C@H](C)O1 [doxorubicin, 10-[(3-amino-2,3,6-trideoxy-α-L-lyxo-hexopyranosyl)oxy]-7,8,9,10-tetrahydro-6,8,11-trihydroxy-8-(hydroxyacetyl)-1-methoxy-(8S-cis)-5,12-naphthacenedione] |  |  |  |  |  |  |  | excellent antitumor activity | 
6 | Cl.Nc1ccn([C@@H]2O[C@H](CO)[C@@H](O)C2(F)F)c(=O)n1 [gemcitabine hydrochloride, 2′-deoxy-2′,2′-difluoro-cytidine hydrochloride] |  |  |  |  |  |  |  | excellent antitumor activity | 
